Where “and” joins values, the source holds several entries; their conditions need not be identical. Equal values may be shown once. Read-outs that look alike come from different tables or passages of the source.
What was measured:
[1] = tested on: Matricaria discoidea (pineapple weed, MATMT); test: Greenhouse postemergence trial MATMT; format: in vivo
[2] = tested on: Glycine max (volunteer soybean, GLXMA); test: Greenhouse postemergence trial GLXMA; format: in vivo
Procedure: (§1) Seeds of the desired test plant species were planted in a 90:10% v/v (volume/volume) mixture of PRO-MIX® BX (Premier Tech Horticulture, Quakertown, PA, USA) and PROFILE® GREENS GRADE™ (Profile Products LLC, Buffalo Grove, IL, USA) planting mixture, which typically has a pH of 5.2 to 6.2 and an organic matter content of at least 50 percent, in plastic pots with a surface area of 103.2 square centimeters (cm^2). […] The plants were grown for 7-36 days (d) in a greenhouse with an approximate 14-hour (h) photo-period which was maintained at about 23° C. during the day and 22° C. during the night. Nutrients and water were added on a regular basis and supplemental lighting was provided with overhead metal halide 1000-Watt lamps as necessary. The plants were employed for testing when they reached the second or third true leaf stage.
(§2) Emulsifiable concentrates of each of each pyridine carboxylate herbicide (Compound A or Compound B) were prepared at 100 grams acid equivalent per liter (g ae/L). The emulsifiable concentrates also included a safener, cloquintocet-mexyl, at 120 grams active ingredient per liter (g ai/L), unless otherwise noted below. An aliquot of each emulsifiable concentrate was placed in a 25 mL glass vial and diluted with an aqueous mixture of 1.25% (v/v) ACTIROB® B esterified rapeseed oil (Bayer Crop Science, Research Triangle Park, NC, USA) or MSO® Concentrate with LECI-TECH® methylated soybean oil (Loveland Products, Loveland, CO, USA) to obtain concentrated stock solutions at the highest application rate for each herbicide, based upon a 12 milliliter (mL) application volume at a rate of 187 liters per hectare (L/ha). The concentrated stock solutions were further diluted with an aqueous mixture of 1.25% v/v ACTIROB® B or MSO® Concentrate with LECI-TECH® to obtain stock solutions at reduced application rates for each herbicide. Spray solutions of the herbicide combinations (Compound A or Compound B plus synthetic auxin herbicide or auxin transport inhibitor) were prepared by adding weighed amounts or aliquots of the synthetic auxin herbicide or auxin transport inhibitor to the stock solutions of Compound A or Compound B to form 12-mL spray solutions in two-way combinations.
(§3) The spray solutions were applied to the plant material with an overhead Mandel track sprayer equipped with 8002E nozzles calibrated to deliver 187 L/ha over an application area of 0.503 square meters (m^2) at a spray height of 18 inches (43 centimeters (cm)) above the average plant canopy. Control plants were sprayed in the same manner with the solvent blank. All pyridine carboxylate herbicide (component a) application rates are given as “g ae/ha” and all synthetic auxin herbicide or auxin transport inhibitor (component b) application rates are given as “g ai/ha.”
(§4) The treated plants and control plants were placed in a greenhouse as described above and watered by sub-irrigation to prevent wash-off of the test compounds. After 20-22 d, the condition of the test plants as compared with that of the control plants was determined visually and scored on a scale of 0 to 100 percent where 0 corresponds to no injury and 100 corresponds to complete kill.

[3] = tested on: Veronica hederifolia (ivyleaf speedwell, VERHE); test: Greenhouse postemergence trial VERHE; format: in vivo
[4] = tested on: Abutilon theophrasti (velvetleaf, ABUTH); test: Greenhouse postemergence trial ABUTH; format: in vivo
[5] = tested on: Chenopodium album L. (common lambsquarters, CHEAL); test: Greenhouse postemergence trial CHEAL; format: in vivo;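 note: greenhouse plants sprayed at second to third true leaf stage, injury rated by eye after 20-22 d versus solvent-blank sprayed controls, 0 = no injury, 100 = complete kill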
[6] = tested on: Stellaria media (chickweed, STEME); test: Greenhouse postemergence trial STEME; format: in vivo
[7] = tested on: Rumex obtusifolius (broad-leaf dock, RUMOB); test: Greenhouse postemergence trial RUMOB; format: in vivo
Procedure: as §1, §2, §3, §4

[8] = tested on: Triticum aestivum (spring wheat, TRZAS); format: in vivo
[9] = tested on: Ipomoea hederacea (ivyleaf morningglory, IPOHE); test: Greenhouse postemergence trial IPOHE; format: in vivo
Procedure: as §1, §2, §3, §4

[10] = tested on: Viola tricolor (wild pansy, VIOTR); test: Greenhouse postemergence trial VIOTR;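 note: greenhouse plants sprayed at second to third true leaf stage, injury rated visually after 20-22 d against solvent-blank sprayed controls, 0 meaning no injury and 100 complete kill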
[11] = tested on: Amaranthus retroflexus (pigweed, AMARE); test: Greenhouse postemergence trial AMARE; format: in vivo;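 note: Greenhouse-grown plants sprayed at second to third true leaf stage, injury rated by eye after 20-22 d versus solvent-blank sprayed controls, 0 = no injury, 100 = complete kill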
[12] = tested on: Veronica persica (bird's-eye speedwell, VERPE); test: Greenhouse postemergence trial VERPE; format: in vivo
Procedure: as §1, §2, §3, §4

[13] = tested on: Brassica napus (winter rape, BRSNW); test: Greenhouse postemergence trial BRSNW; format: in vivo
[14] = tested on: Hordeum vulgare (spring barley, HORVS); format: in vivo
[15] = tested on: Matricaria chamomilla (wild chamomile, MATCH); test: Greenhouse postemergence trial MATCH; format: in vivo;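 note: greenhouse plants sprayed at second to third true leaf stage, injury rated by eye 20-22 d later versus solvent-blank controls on 0–100 scale, 0 no injury, 100 complete kill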
Procedure: The plants were grown for 7-36 days (d) in a greenhouse with an approximate 14-hour (h) photo-period which was maintained at about 23° C. during the day and 22° C. during the night. Nutrients and water were added on a regular basis and supplemental lighting was provided with overhead metal halide 1000-Watt lamps as necessary. The plants were employed for testing when they reached the second or third true leaf stage.
The emulsifiable concentrates also included a safener, cloquintocet-mexyl, at 120 grams active ingredient per liter (g ai/L), unless otherwise noted below.
Control plants were sprayed in the same manner with the solvent blank. All pyridine carboxylate herbicide (component a) application rates are given as “g ae/ha” and all synthetic auxin herbicide or auxin transport inhibitor (component b) application rates are given as “g ai/ha.”
as §4

[16] = tested on: Polygonum convolvulus (wild buckwheat, POLCO); test: Greenhouse postemergence trial POLCO; format: in vivo
Procedure: as §1, §2, §3, §4

[17] = tested on: Kochia scoparia (kochia, KCHSC); test: Greenhouse postemergence trial KCHSC; format: in vivo
[18] = tested on: Papaver rhoeas (corn poppy), herbicide-resistant (PAPRH-R); test: Greenhouse postemergence trial PAPRH-R; format: in vivo
Procedure: as §1, §2, §3, §4

[19] = tested on: Cirsium arvense (Canadian thistle, CIRAR); test: Greenhouse postemergence trial CIRAR; format: in vivo
[20] = tested on: Helianthus annuus (common sunflower, HELAN); test: Greenhouse postemergence trial HELAN; format: in vivo
Procedure: as §1, §2, §3, §4

[21] = tested on: Papaver rhoeas (corn poppy, PAPRH); test: Greenhouse postemergence trial PAPRH; format: in vivo; details: c1-3 Compound A 7.5/10/15; c4-5 Fluroxypyr-MHE 100/140; c6-8, c9-11 A 7.5/10/15 + Fluroxypyr-MHE 100, 140 g/ha
[22] = tested on: Anthemis arvensis (field chamomile, ANTAR); test: Greenhouse postemergence trial ANTAR; format: in vivo; details: c1-3 Compound A 7.5/10/15; c4-5 Fluroxypyr-MHE 100/140; c6-8, c9-11 A 7.5/10/15 + Fluroxypyr-MHE 100, 140 g/ha
Procedure: as §1, §2, §3, §4

[23] = tested on: Triticum aestivum (winter wheat, TRZAW); test: Greenhouse postemergence crop phytotoxicity TRZAW; format: in vivo; details: c1-3 Compound A 7.5/10/15; c4-5 Fluroxypyr-MHE 100/140; c6-8, c9-11 A 7.5/10/15 + Fluroxypyr-MHE 100, 140 g/ha
[24] = tested on: Hordeum vulgare (winter barley, HORVW); test: Greenhouse postemergence crop phytotoxicity HORVW; format: in vivo; details: c1-3 Compound A 7.5/10/15; c4-5 Fluroxypyr-MHE 100/140; c6-8, c9-11 A 7.5/10/15 + Fluroxypyr-MHE 100, 140 g/ha
[25] = tested on: Cyanus segetum (cornflower, CENCY); test: Greenhouse postemergence trial CENCY; format: in vivo; details: c1-3 Compound A 7.5/10/15; c4-5 Fluroxypyr-MHE 100/140; c6-8, c9-11 A 7.5/10/15 + Fluroxypyr-MHE 100, 140 g/ha
[26] = tested on: Capsella bursa-pastoris (shepherd's purse, CAPBP); test: Greenhouse postemergence trial CAPBP; format: in vivo; details: c1-3 Compound A 7.5/10/15; c4-5 Fluroxypyr-MHE 100/140; c6-8, c9-11 A 7.5/10/15 + Fluroxypyr-MHE 100, 140 g/ha
Procedure: as §1, §2, §3, §4

[27] = tested on: Matricaria inodora (false chamomile, MATIN); test: Greenhouse postemergence trial MATIN; format: in vivo; details: c1-3 Compound A 7.5/10/15; c4-5 Fluroxypyr-MHE 100/140; c6-8, c9-11 A 7.5/10/15 + Fluroxypyr-MHE 100, 140 g/ha
[28] = tested on: Lamium purpureum (purple deadnettle, LAMPU); test: Greenhouse postemergence trial LAMPU; details: c1-3 Compound A 7.5/10/15; c4-5 Fluroxypyr-MHE 100/140; c6-8, c9-11 A 7.5/10/15 + Fluroxypyr-MHE 100, 140 g/ha
[29] = tested on: Galium aparine (cleavers, GALAP); test: Greenhouse postemergence trial GALAP; format: in vivo; details: c1-3 Compound A 7.5/10/15; c4-5 Fluroxypyr-MHE 100/140; c6-8, c9-11 A 7.5/10/15 + Fluroxypyr-MHE 100, 140 g/ha
Procedure: as §1, §2, §3, §4

[30] = tested on: Viola arvensis (field violet, VIOAR); test: Greenhouse postemergence trial VIOAR; format: in vivo; details: c1-3 Compound A 7.5/10/15; c4-5 Fluroxypyr-MHE 100/140; c6-8, c9-11 A 7.5/10/15 + Fluroxypyr-MHE 100, 140 g/ha
[31] = c1-3 Compound A 7.5/10/15, c4-5 Fluroxypyr-MHE 100/140, c6-8, c9-11 A 7.5/10/15 + Fluroxypyr-MHE 100, 140 g/ha

C#CCOC(=O)c1nc(-c2ccc3cc[nH]c3c2F)c(F)c(N)c1Cl [Compound B, propargyl 4-amino-3-chloro-5-fluoro-6-(7-fluoro-1H-indol-6-yl)pyridine-2-carboxylate]
MATMT % visual injury Obs ([1]; Compound B 10 g/ha (Table 38)): 20%
MATMT % visual injury Obs ([1]; Compound B 10 g/ha (Table 39)): 20%
GLXMA % visual injury Obs ([2]; Compound B 10 g/ha (Table 40)): 73%
GLXMA % visual injury Obs ([2]; Compound B 10 g/ha (Table 41)): 73%
VERHE % visual injury Obs ([3]; Compound B 10 g/ha (Table 39)): 70%
ABUTH % visual injury Obs ([4]; Compound B 10 g/ha (Table 40)): 68%
ABUTH % visual injury Obs ([4]; Compound B 10 g/ha (Table 41)): 68%
CHEAL % visual injury Obs ([5]; Compound B 10 g/ha (Table 40)): 93%
CHEAL % visual injury Obs ([5]; Compound B 10 g/ha (Table 41)): 93%
STEME % visual injury Obs ([6]; Compound B 10 g/ha (Table 40)): 90%
STEME % visual injury Obs ([6]; Compound B 10 g/ha (Table 41)): 90%
RUMOB % visual injury Obs ([7]; Compound B 10 g/ha (Table 40)): 15%
RUMOB % visual injury Obs ([7]; Compound B 10 g/ha (Table 41)): 15%
TRZAS % visual injury Obs ([8]; Compound B 10 g/ha (Table 36)): 0%
TRZAS % visual injury Obs ([8]; Compound B 10 g/ha (Table 37)): 0%
% visual injury, Obs ([8]; TRZAS, applied alone, 10 g/ha): 0%
IPOHE % visual injury Obs ([9]; Compound B 10 g/ha (Table 40)): 0%
IPOHE % visual injury Obs ([9]; Compound B 10 g/ha (Table 41)): 0%
VIOTR % visual injury Obs ([10]; Compound B 10 g/ha (Table 40)): 8%
VIOTR % visual injury Obs ([10]; Compound B 10 g/ha (Table 41)): 8%
% visual injury, Obs ([11]; AMARE, applied alone, 10 g/ha): 84%
AMARE % visual injury Obs ([11]; Compound B 10 g/ha (Table 36)): 84%
AMARE % visual injury Obs ([11]; Compound B 10 g/ha (Table 40)): 73%
AMARE % visual injury Obs ([11]; Compound B 10 g/ha (Table 41)): 73%
VERVE % visual injury Obs ([12]; Compound B 10 g/ha (Table 39)): 80%
plant injury at 10 g/ha ([13]; Brassica napus, post-emergence, BRSNW, applied alone, 10 g/ha, read-out: % visual injury, Obs): 73%
BRSNW % visual injury Obs ([13]; Compound B 10 g/ha (Table 36)): 73%
BRSNW % visual injury Obs ([13]; Compound B 10 g/ha (Table 37)): 73%
BRSNW % visual injury Obs ([13]; Compound B 10 g/ha (Table 39)): 93%
HORVS % visual injury Obs ([14]; Compound B 10 g/ha (Table 36)): 0%
HORVS % visual injury Obs ([14]; Compound B 10 g/ha (Table 37)): 0%
% visual injury, Obs ([14]; HORVS, applied alone, 10 g/ha): 0%
MATCH % visual injury Obs ([15]; Compound B 10 g/ha (Table 39)): 20%
% visual injury, Obs ([15]; MATCH, applied alone, 10 g/ha): 18%
POLCO % visual injury Obs ([16]; Compound B 10 g/ha (Table 36)): 97%
POLCO % visual injury Obs ([16]; Compound B 10 g/ha (Table 40)): 90%
POLCO % visual injury Obs ([16]; Compound B 10 g/ha (Table 41)): 90%
KCHSC % visual injury Obs ([17]; Compound B 10 g/ha (Table 40)): 73%
KCHSC % visual injury Obs ([17]; Compound B 10 g/ha (Table 41)): 73%
PAPRH-R % visual injury Obs ([18]; Compound B 10 g/ha (Table 38)): 95%
PAPRH-R % visual injury Obs ([18]; Compound B 10 g/ha (Table 39)): 95%
CIRAR % visual injury Obs ([19]; Compound B 10 g/ha (Table 36)): 25%
CIRAR % visual injury Obs ([19]; Compound B 10 g/ha (Table 37)): 25%
CIRAR % visual injury Obs ([19]; Compound B 10 g/ha (Table 40)): 55%
CIRAR % visual injury Obs ([19]; Compound B 10 g/ha (Table 41)): 55%
HELAN % visual injury Obs ([20]; Compound B 10 g/ha (Table 40)): 100%
HELAN % visual injury Obs ([20]; Compound B 10 g/ha (Table 41)): 100%

CCCCCCC(C)OC(=O)COc1nc(F)c(Cl)c(N)c1Cl (centres unmarked) [Fluroxypyr-MHE, fluroxypyr-meptyl, reference compound]
% visual injury [1, 31]: 0%
% visual injury [21]: 10%
% visual injury [3, 31]: 30% and 60%
% visual injury [22]: 30% and 35%
% visual injury (crop phytotoxicity) [23]: 0%
% visual injury (crop phytotoxicity) [24]: 0%
% visual injury [25]: 60% and 95%
% visual injury [6, 31]: 70% and 75%
% visual injury (crop phytotoxicity) [8, 31]: 0%
% visual injury [10, 31]: 50%
% visual injury [12, 31]: 70% and 85%
% visual injury (crop phytotoxicity) [14, 31]: 0%
% visual injury [26]: 0%
% visual injury [27]: 10% and 15%
% visual injury [18, 31]: 10%
% visual injury [28]: 60% and 65%
% visual injury [29]: 85% and 95%
% visual injury [30]: 20%
